# Patent publication US20180296630A1, “METHODS AND COMPOSITIONS FOR PREVENTING OR TREATING OPHTHALMIC CONDITIONS” (Stealth BioTherapeutics Corp, priority 2012, published 2018)
# Columns and labels:
# [1] = system: trabecular meshwork cells from non-diseased individuals (HTM); experiment: LDH cytotoxicity assay, HTM cells; format: cell-based, human
# Source text: In this Example, the effects of the aromatic-cationic peptides of the invention were compared between trabecular meshwork cells from POAG patients (GTM) and trabecular meshwork cells from non-diseased individuals (HTM). Methods useful in the studies of the present invention have been described. See generally, He Y, Ge J, Tombran-Tink J., Mitochondrial defects and dysfunction in calcium regulation in glaucomatous trabecular meshwork cells. Invest Ophthalmol Vis Sci. 2008, 49(11):4912-22; He Y, Leung K W, Zhang Y H, Duan S, Zhong X F, Jiang R Z, Peng Z, Tombran-Tink J, Ge J. Mitochondrial complex I defect induces ROS release and degeneration in trabecular meshwork cells of POAG patients: protection by antioxidants. Invest Ophthalmol Vis Sci. 2008, 49(4):1447-58. […]
# To assess whether D-Arg-2′,6′-Dmt-Lys-Phe-NH2 had cytotoxic effects of HTM or GTM cells, various concentrations of D-Arg-2′,6′-Dmt-Lys-Phe-NH2 were administered to cells and the cytotoxicity was measured using an LDH assay. […] The assay quantitatively measures the stable, cytosolic, lactate dehydrogenase (LDH) enzyme, which is released from damaged cells. The released LDH is measured with a coupled enzymatic reaction that results in the conversion of a tetrazolium salt (iodonitrotetrazolium (INT)) into a red color formazan by diaphorase. […] The LDH activity is determined as NADH oxidation or INT reduction over a defined time period.
# GTM3 cells = experiment: MMP decline, sustained oxidative injury by H2O2, GTM3 cells; format: cell-based, human; settings: then 200 μM H2O2 24 h
# Description: The effects of D-Arg-2′,6′-Dmt-Lys-Phe-NH2 on sustained oxidative injury of GTM and HTM cells was examined. Cells were pre-treated with 10^−6, 10^−7, 10^−8M of D-Arg-2′,6′-Dmt-Lys-Phe-NH2 for 1 h, and then incubated with 200 μM H2O2 for 24 h to investigate the protective effect of D-Arg-2′,6′-Dmt-Lys-Phe-NH2 in sustained oxidative stress.
# [2] = system: primary human retinal pigment epithelial (RPE) cells; experiment: Viability of primary RPE cells incubated with peptide alone (MTT); format: cell-based; settings: different concentrations of peptide alone; 24 h
# Description: Primary retinal pigment epithelial (RPE) cells were cultured to test the effects of the aromatic-cationic peptides of the invention in preventing or reducing oxidative damage in these cells. Methods useful for the study of primary retinal pigment epithelial cells have been described. See, Dunn et al., ARPE-19, A Human Retinal Pigment Epithelial Cell Line with Differentiated Properties, Experimental Eye Research, 1996, 62(2): 155-170. […] Primary cultured human RPE cells were incubated with different concentrations of D-Arg-2′,6′-Dmt-Lys-Phe-NH2 alone for a period of 24 h, and cell viability was determined by a MTT assay (FIG. 22).
# [3] = system: streptozocin diabetic rats; experiment: Quantitative MRI of the retina in diabetic rats; format: in vivo, SD rats
# Description: 7, issue 1. Glycated hemoglobin and retinal thickness ex vivo (histology) will also be measured in control, diabetic groups and D-Arg-2′,6′-Dmt-Lys-Phe-NH2 treatment groups.
# Diabetes is induced with intraperitoneal injection of streptozocin (60 mg/kg) within 5 minutes of its preparation in 0.01 M citrate buffer (pH 4.5) in male SD rats with body weights of approximately 200 g after overnight fast. Diabetes is verified 3 days later by the presence of plasma hyperglycemia (>300 mg/dl) and elevated urine volume (more than 60 ml/d) in nonfasted rats. Rat body weight and blood glucose levels are monitored weekly. Subtherapeutic levels of insulin (0-2 U neutral protamine Hagedorn insulin administered subcutaneously daily) is administered to maintain blood glucose levels between 450 and 550 mg/dl without urine ketones. Glycated hemoglobin is measured after 2 months of diabetes (Glyco-Tek affinity columns, kit 5351; Helena Laboratories, Beaumont, Tex.).
# Nine month old diabetic rats are treated with D-Arg-2′,6′-Dmt-Lys-Phe-NH2 by injection, either intraperitoneal (IP) or subcutaneous (SC), with 1, 5, or 10 mg/kg D-Arg-2′,6′-Dmt-Lys-Phe-NH2. Injections are once/day. After 7 days of treatment, the retinas of the rats in the treatment and control groups are evaluated.
# Male SD rats are examined by MRI by the methods of Berkowitz et al. Central retinal thickness at 2, 3, 4, 6, and 9 months after induction of diabetes is measured, and in age-matched non-diabetic controls. At day 7 after D-Arg-2′,6′-Dmt-Lys-Phe-NH2 treatment, rats are again evaluated via MRI according to the methods of Berkowitz et al.
# [4] = system: STZ diabetic rats with intraocular ischemia/reperfusion; experiment: Efficacy Pharmacological Test 1: diabetic rats, intraocular ischemia/reperfusion, visual cell layer edema
substance,measurement,setting,value
"D-Arg-2′,6′-Dmt-Lys-Phe-NH2",cytotoxicity,[1]; 10^−4M,no cytotoxicity
same,viability (LDH assay),[1]; various concentrations,does not affect the viability
same,MMP Decline,GTM3 cells; 0.01 μM pre-treatment 1 h,−31.33 ± 1.20 %
same,MMP Decline,GTM3 cells; 0.1 μM pre-treatment 1 h,−29.33 ± 2.19 %
same,MMP Decline,GTM3 cells; 1 μM pre-treatment 1 h,−24.33 ± 4.18 %
same,cell viability (MTT assay),[2],did not adversely effect these cells
same,Apparent diffusion coefficient,[3]; 1 mg/kg IP or SC injection,N to N+
same,Intraretinal water content,[3]; 1 mg/kg IP or SC injection,N to N+
same,Retinal thickness,[3]; 1 mg/kg IP or SC injection,N to N+
same,Apparent diffusion coefficient,[3]; 5 mg/kg IP or SC injection,N to N+
same,Intraretinal water content,[3]; 5 mg/kg IP or SC injection,N to N+
same,Retinal thickness,[3]; 5 mg/kg IP or SC injection,N to N+
same,Apparent diffusion coefficient,[3]; 10 mg/kg IP or SC injection,N to N+
same,Intraretinal water content,[3]; 10 mg/kg IP or SC injection,N to N+
same,Retinal thickness,[3]; 10 mg/kg IP or SC injection,N to N+
same,loss of nuclei in the inner retinal layer,[4]; compared to the diabetic control group,"absent, or much diminished"
same,edema of the visual cell layer after ischemia/reperfusion,"[4]; diabetic groups, oral, parenteral or eye drops twice per day",no edema or very low levels of edema
